Oc1c(Cl)cc(Cl)c2cccnc12
solubility (mole fraction)
Conditions	293.15 K	298.15 K	303.15 K	308.15 K	313.15 K	318.15 K	323.15 K	328.15 K	333.15 K
in 1,4-dioxane	0.00523	0.0062	0.00736	0.0089	0.0106	0.0123	0.0146	0.017	0.0193
in DMF	0.0132	0.016	0.0194	0.024	0.0294	0.0347	0.0408	0.0478	0.0555
in DMSO	0.00296	0.00378	0.0048	0.00633	0.00793	0.00997	0.0123	0.0154	0.0188
in NMP	0.00576	0.00683	0.00823	0.00963	0.0113	0.0137	0.0162	0.0188	0.022
in water	1.02e-06	1.48e-06	2.03e-06	2.82e-06	3.82e-06	5e-06	6.86e-06	8.91e-06	1.15e-05
